We go through 21 molecules from patent US10611750B2, “Tetrahydroquinoline compositions as bet bromodomain inhibitors” (FORMA Therapeutics, Inc., priority 2013, dated 2020).

For assay [1], the system named is acute myelocytic leukemia (AML) cell line MV4-11. The experiment in a line: Oncology cell growth assay (3-day proliferation, CellTiter-Glo). Conditions: Homo sapiens, MV4-11, 72 h, MV4-11 cells, 3000 cells/well, compounds listed under IC50 range headings, read-out: MV411 IC50 (gIC50, inhibition of proliferation). In kind it is cell-based. The method, then: The impact of Example compounds on cancer cell proliferation was determined using the acute myelocytic leukemia (AML) cell line MV4-11 (ATCC) in a 3-day proliferation assay. MV4-11 cells were maintained in RPMI 1640 media supplemented with 10% FBS at 37° C. and an atmosphere of 5% CO2. For compound testing, compound dilutions series were prepared in DMSO via a 3-fold serial dilution from 2 mM to 0.001 mM in 384-well white flat bottom plates. The final compound concentrations in the wells were 10, 3.3, 1.1, 0.37, 0.12, 0.041, 0.013 and 0.0045 μM. MV4-11 cells were plated at a density of 3000 cells/well in final volume of 50 μl culture media and incubated for 72 hours. […] Luminescent signal from the CellTiter-Glo assay was read on an EnVision multilabel plate reader (PerkinElmer). Values for the concentration that inhibited cell growth by 50% (gIC50) between the DMSO control and background control (no cells) were determined using IDBS Activity Base software with a four parameter logistic curve fit by the equation y=A+((B−A)/(1+((C/x)^D))), wherein A denotes the bottom plateau of the curve, B denotes the top plateau of the curve, C denotes the x value at the middle of the curve, D denotes the slope factor, x denotes the original known x values, and y denotes the original known y values. Data was fitted using the Levenburg Marquardt algorithm.

The target of assay [2] is T1, BRD4 Bromodomain 1 (BRD4 BD1) (Homo sapiens, UniProt O60885).
T1 construct: 44-168 and BRD4 BD2
The experiment in a line: AlphaScreen binding assay, BRD4 BD1. The settings on record: His-tagged BRD4 BD1 50 nM, biotinylated H4 (1-21) K5/8/12/16 tetra-acetylated peptide 50 nM, compounds listed under IC50 range headings. The method, then: The binding of Example compounds to BRD4 Bromodomain 1 and BRD4 Bromodomain 2 was assessed using 384-well AlphaScreen assay technology. His-epitope tagged BRD4 BD144-168 and BRD4 BD2333-460 were cloned, expressed, and purified to homogeneity. BRD4 BD1 and BRD4 BD2 binding and inhibition was assessed by monitoring the engagement of biotinylated Histone H4 (1-21) K5/8/12/16 tetra-acetylated peptide with the targets using the AlphaScreen technology (PerkinElmer). Specifically, in a 384-well black or white flat bottom plate, BRD4 BD1 (50 nM final) or BRD4 BD2 (100 nM final) was combined with peptide (50 nM final for BD1 or 100 nM final for BD2) in 50 mM HEPES (pH 7.3), 100 mM NaCl, 0.1% (w/v) BSA, and 0.01% (w/v) Triton X-100 either in the presence of DMSO (final 1.25% DMSO) or compound dilution series in DMSO. Alpha streptavidin donor beads and Nickel-chelate acceptor beads were added to a final concentration of 10 μg/ml each. After a minimum of 1 hour equilibration, plates were read on a BMG PHERAstar FS multi-label reader (BMG LabTech). The half maximal inhibitory concentration (IC50) values were calculated using IDBS Activity Base software with a four parameter logistic curve fit by the equation y=A+((B−A)/(1+((C/x)^D))), wherein A denotes the bottom plateau of the curve, B denotes the top plateau of the curve, C denotes the x value at the middle of the curve, D denotes the slope factor, x denotes the original known x values, and y denotes the original known y values. Data was fitted using the Levenburg Marquardt algorithm.

`C[C@H]1CCc2c(ccc(-c3cn[nH]c3)c2OC2CCC2)N1C(=O)C1CC1` [I-54, (S)-(5-cyclobutoxy-2-methyl-6-(1H-pyrazol-4-yl)-3,4-dihydroquinolin-1 (2H)-yl)(cyclopropyl)methanone]: the IC50 in assay [1] is less than 500 nM; in assay [2], 100 to 1000 nM.
The matching figures for `C[C@H]1CCc2c(ccc(-c3cnn(C)c3)c2OC2CCC2)N1C(=O)C1CC1` [I-55, (S)-(5-cyclobutoxy-2-methyl-6-(1-methyl-1H-pyrazol-4-yl)-3,4-dihydroquinolin-1 (2H)-yl)(cyclopropyl)methanone]: less than 500 nM and 100 to 1000 nM.
`C[C@H]1CCc2c(ccc(-c3ccn[nH]3)c2OC2CCC2)N1C(=O)C1CC1` [I-56, (S)-(5-cyclobutoxy-2-methyl-6-(1H-pyrazol-5-yl)-3,4-dihydroquinolin-1(2H)-yl)(cyclopropyl)methanone]: the IC50 in assay [1] was 500 to 1000 nM; in assay [2], 1000 to 10000 nM.
The matching figures for `C[C@H]1CCc2c(ccc(-c3cn(C)cn3)c2OC2CCC2)N1C(=O)C1CC1` [I-57, (S)-(5-cyclobutoxy-2-methyl-6-(1-methyl-1H-imidazol-4-yl)-3,4-dihydroquinolin-1(2H)-yl)(cyclopropyl)methanone]: less than 500 nM and 100 to 1000 nM.
The matching figures for `C[C@H]1CCc2c(OC3CCC3)c(-c3cnn(C4CC4)c3)cc(F)c2N1C(=O)C1CC1` [I-69, (S)-(5-cyclobutoxy-6-(1-cyclopropyl-1H-pyrazol-4-yl)-8-fluoro-2-methyl-3,4-dihydroquinolin-1(2H)-yl)(cyclopropyl)methanone]: 500 to 1000 nM and 1000 to 10000 nM.
The matching figures for `C[C@H]1CCc2c(OC3CCC3)c(-c3cn[nH]c3)cc(F)c2N1C(=O)C1CC1` [I-70, (S)-(5-cyclobutoxy-8-fluoro-2-methyl-6-(1H-pyrazol-4-yl)-3,4-dihydroquinolin-1(2H)-yl)(cyclopropyl)methanone]: 500 to 1000 nM and 1000 to 10000 nM.
Regarding `COC(=O)N1c2c(F)cc(-c3cnn(C4CC4)c3)c(OC3CCC3)c2CC[C@@H]1C` [I-71, (S)-methyl 5-cyclobutoxy-6-(1-cyclopropyl-1H-pyrazol-4-yl)-8-fluoro-2-methyl-3,4-dihydroquinoline-1(2H)-carboxylate], the values for the IC50 in assay [1] and in assay [2] were 500 to 1000 nM and 100 to 1000 nM, respectively.
The matching figures for `COC(=O)N1c2c(F)cc(-c3cn[nH]c3)c(OC3CCC3)c2CC[C@@H]1C` [I-72, (S)-methyl 5-cyclobutoxy-8-fluoro-2-methyl-6-(1H-pyrazol-4-yl)-3,4-dihydroquinoline-1(2H)-carboxylate]: less than 500 nM and 100 to 1000 nM.
The matching figures for `CC(=O)N1c2c(F)cc(-c3cnn(C4CC4)c3)c(OC3CCC3)c2CC[C@@H]1C` [I-73, (S)-1-(5-cyclobutoxy-6-(1-cyclopropyl-1H-pyrazol-4-yl)-8-fluoro-2-methyl-3,4-dihydroquinolin-1(2H)-yl)ethanone]: 500 to 1000 nM and 100 to 1000 nM.
As for `CC(=O)N1c2c(F)cc(-c3cn[nH]c3)c(OC3CCC3)c2CC[C@@H]1C` [I-74, (S)-1-(5-cyclobutoxy-8-fluoro-2-methyl-6-(1H-pyrazol-4-yl)-3,4-dihydroquinolin-1(2H)-yl)ethanone], the IC50 in assay [1] is 500 to 1000 nM; in assay [2] it was 1000 to 10000 nM.
The matching figures for `CC(=O)N1c2c(F)c(F)c(-c3cnn(C4CC4)c3)c(OC3CCC3)c2CC[C@@H]1C` [I-75, (S)-1-(5-cyclobutoxy-6-(1-cyclopropyl-1H-pyrazol-4-yl)-7,8-difluoro-2-methyl-3,4-dihydroquinolin-1 (2H)-yl)ethanone]: more than 1000 nM and not below 10000 nM.
Regarding `C[C@H]1CCc2c(ccc(-c3cnn(C4CCNCC4)c3)c2Oc2cccc(Cl)n2)N1C(=O)C1CC1` [I-94, (S)-(5-(6-chloropyridin-2-yloxy)-2-methyl-6-(1-(piperidin-4-yl)-1H-pyrazol-4-yl)-3,4-dihydroquinolin-1(2H)-yl)(cyclopropyl)methanone], the figures for the IC50 in assay [1] and in assay [2] were less than 500 nM and 1000 to 10000 nM, respectively.
The matching figures for `C[C@H]1CCc2c(ccc(-c3cnn(C4CCNCC4)c3)c2Oc2ccccn2)N1C(=O)C1CC1` [I-95, (S)-cyclopropyl(2-methyl-6-(1-(piperidin-4-yl)-1H-pyrazol-4-yl)-5-(pyridin-2-yloxy)-3,4-dihydroquinolin-1(2H)-yl)methanone]: less than 500 nM and 1000 to 10000 nM.
As to `COC(=O)N1c2ccc(-c3cnn(C4CCNCC4)c3)c(Oc3ccccn3)c2CC[C@@H]1C` [I-96, (S)-methyl 2-methyl-6-(1-(piperidin-4-yl)-1H-pyrazol-4-yl)-5-(pyridin-2-yloxy)-3,4-dihydroquinoline-1(2H)-carboxylate], the IC50 in assay [1] is less than 500 nM; in assay [2], 100 to 1000 nM.
In the case of `C[C@H]1CCc2c(ccc(-c3cnn(C4CCNCC4)c3)c2Oc2cccc(F)n2)N1C(=O)C1CC1` [I-97, (S)-cyclopropyl(5-(6-fluoropyridin-2-yloxy)-2-methyl-6-(1-(piperidin-4-yl)-1H-pyrazol-4-yl)-3,4-dihydroquinolin-1(2H)-yl)methanone], the values for the IC50 in assay [1] and in assay [2] were less than 500 nM and 100 to 1000 nM, respectively.
For the molecule `COc1cccc(Oc2c(-c3cnn(C4CCNCC4)c3)ccc3c2CC[C@H](C)N3C(=O)C2CC2)n1` [I-98, (S)-cyclopropyl(5-(6-methoxypyridin-2-yloxy)-2-methyl-6-(1-(piperidin-4-yl)-1H-pyrazol-4-yl)-3,4-dihydroquinolin-1(2H)-yl)methanone], the IC50 was less than 500 nM in assay [1] and 100 to 1000 nM in assay [2].
The matching figures for `C[C@H]1CCc2c(OC3CCC3)c(-c3cnn(C4CCNCC4)c3)cc(F)c2N1C(=O)C1CC1` [I-103, (S)-(5-cyclobutoxy-8-fluoro-2-methyl-6-(1-(piperidin-4-yl)-1H-pyrazol-4-yl)-3,4-dihydroquinolin-1(2H)-yl)(cyclopropyl)methanone]: less than 500 nM and 100 to 1000 nM.
The matching figures for `CC(=O)N1c2c(F)cc(-c3cnn(C4CCNCC4)c3)c(OC3CCC3)c2CC[C@@H]1C` [I-105, (S)-1-(5-cyclobutoxy-8-fluoro-2-methyl-6-(1-(piperidin-4-yl)-1H-pyrazol-4-yl)-3,4-dihydroquinolin-1(2H)-yl)ethanone]: less than 500 nM and 100 to 1000 nM.
The matching figures for `CC(=O)N1c2c(F)c(F)c(-c3cnn(C4CCNCC4)c3)c(OC3CCC3)c2CC[C@@H]1C` [I-106, (S)-1-(5-cyclobutoxy-7,8-difluoro-2-methyl-6-(1-(piperidin-4-yl)-1H-pyrazol-4-yl)-3,4-dihydroquinolin-1 (2H)-yl)ethanone]: more than 1000 nM and 1000 to 10000 nM.
Regarding `COC(=O)N1c2ccc(-c3cnn(C4CC5CNCC5C4)c3)c(OC3CCC3)c2CC[C@@H]1C` (stereo partly drawn) [I-109, (2S)-methyl 5-cyclobutoxy-2-methyl-6-(1-(octahydrocyclopenta[c]pyrrol-5-yl)-1H-pyrazol-4-yl)-3,4-dihydroquinoline-1(2H)-carboxylate], the IC50 was less than 500 nM in assay [1] and 100 to 1000 nM in assay [2].
The matching figures for `COC(=O)N1c2c(F)cc(-c3cnn(C4CCNCC4)c3)c(OC3CCC3)c2CC[C@@H]1C` [I-110, (S)-methyl 5-cyclobutoxy-8-fluoro-2-methyl-6-(1-(piperidin-4-yl)-1H-pyrazol-4-yl)-3,4-dihydroquinoline-1(2H)-carboxylate]: less than 500 nM and 100 to 1000 nM.
